What was measured:
Assay type in all cases: in vivo
Abutilon theophrasti = test: Herbicidal activity in pre-emergence; conditions: dose of 250 g/ha, twenty-one days after treatment, vs untreated control
Experimental: (§1) The herbicidal activity of the compounds of the invention in pre-emergence was evaluated according to the following operating modes.
(§2) The plant species of interest (weeds or crops) were sown in pots with a diameter of 10 cm, a height of 10 cm and containing sandy soil. Six pots of each plant species were used.
(§3) Water was added to each pot in an amount suitable for the germination of the seeds. The pots were then divided into two groups each containing 3 pots for each weed or crop.
(§4) One day after sowing, the first group of pots was treated with a dispersion having the following composition:
(§5) The dispersion was prepared by adding a desired dose of a compound of the present invention to a hydroacetone solution containing acetone at 20% by volume and Tween 20 at 0.5% by weight, with respect to the total weight of the dispersion and applied on a surface of 2 square meters. […]
(§6) The second group was treated only with a hydroacetone solution containing acetone at 20% by volume and Tween 20 at 0.5% by weight, and was used as a comparison term (control).
(§7) All the pots were kept under observation in a conditioned environment (greenhouse) under the following environmental conditions: • temperature: 24° C. during the day and 18° C. at night • relative humidity: >50% • photoperiod: 16 hours; • light intensity: 12,000 lux.
(§8) The pots were uniformly watered as needed, so as to ensure a degree of humidity sufficient for a good development of the plants.
(§9) Twenty-one days after treatment, the herbicidal activity was evaluated according to the percentage of damage (scale 0-100%) found on the treated plants compared to the untreated plants (control): • 0%=No effect on the plants • 100%=Complete death of the plants
(§10) Nrs. 4 and 2 compared with a dispersion containing the Compound CR1 described in EP0297378 instead of the compound having general formula (I): […]

Amaranthus retroflexus = test: Herbicidal activity in pre-emergence; conditions: dose of 250 g/ha, twenty-one days after treatment, vs untreated control
Experimental: as §1, §2, §3, §4, §5, §6, §7, §8, §9, §10

Lolium rigidum = test: Herbicidal activity in pre-emergence; conditions: dose of 250 g/ha, twenty-one days after treatment, vs untreated control
Experimental: as §1, §2, §3, §4, §5, §6, §7, §8, §9, §10

Setaria viridis = test: Herbicidal activity in pre-emergence; conditions: dose of 250 g/ha, twenty-one days after treatment, vs untreated control
Experimental: as §1, §2, §3, §4, §5, §6, §7, §8, §9, §10

Solanum nigra = test: Herbicidal activity in pre-emergence; conditions: dose of 250 g/ha, twenty-one days after treatment, vs untreated control
Experimental: as §1, §2, §3, §4, §5, §6, §7, §8, §9, §10

Digitaria sanguinalis = test: Herbicidal activity in post-emergence; conditions: dose of 250 g/ha, post-emergence (BBCH 11-12), twenty-one days after treatment, vs untreated control
Experimental: (§11) The herbicidal activity of the compounds of the invention in post-emergence was evaluated according to the following operating modes.
(§12) The plant species of interest (weeds or crops) were sown in pots with a diameter greater than 10 cm, a height of 10 cm and containing sandy soil. Six pots were used for each plant species.
as §3
(§13) Upon reaching the phenological stage of the plants with 1-2 extended leaves (BBCH 11-12), the first group of pots was treated with the same hydroacetone dispersion containing 20% acetone by volume, the compound under evaluation at the desired dose and Tween 20 at 0.5% by weight, indicated in Example 6.
as §6, §7, §8, §9
(§14) Nrs. 11,4,2,3 compared with a hydroacetone dispersion containing the Compound CR1 described in EP0297378.

Echinochloa crus-galli = test: Herbicidal activity in post-emergence; conditions: dose of 250 g/ha, post-emergence (BBCH 11-12), twenty-one days after treatment, vs untreated control
Experimental: as §11, §12, §3, §13, §6, §7, §8, §9, §14

Sida spinosa = test: Herbicidal activity in post-emergence; conditions: dose of 250 g/ha, post-emergence (BBCH 11-12), twenty-one days after treatment, vs untreated control
Experimental: as §11, §12, §3, §13, §6, §7, §8, §9, §14

CC1=C(C)C(OC(=O)C2CC2)N(c2cc(C(C)(C)C)on2)C1=O (stereo not drawn) [Compound 4, 1-(5-tert-butylisoxazole-3-yl)-2-cyclo-propanecarbonyloxy-3,4-dimethyl-2H-pyrrol-5-one]
Herbicidal activity in pre-emergence (percentage of damage, scale 0-100%) (Abutilon theophrasti): 100%
Herbicidal activity in pre-emergence (percentage of damage, scale 0-100%) (Amaranthus retroflexus): 80%
Herbicidal activity in pre-emergence (percentage of damage, scale 0-100%) (Lolium rigidum): 90%
Herbicidal activity in pre-emergence (percentage of damage, scale 0-100%) (Setaria viridis): 100%
Herbicidal activity in pre-emergence (percentage of damage, scale 0-100%) (Solanum nigra): 100%
Herbicidal activity in post-emergence (percentage of damage, scale 0-100%) (Digitaria sanguinalis): 100%
Herbicidal activity in post-emergence (percentage of damage, scale 0-100%) (Echinochloa crus-galli): 100%
Herbicidal activity in post-emergence (percentage of damage, scale 0-100%) (Sida spinosa): 100%

CC1=C(C)C(O)N(c2cc(C(C)(C)C)on2)C1=O (stereo not drawn) [CR1, 1-(5-tert-butylisoxazol-3-yl)-2-hydroxy-3,4-dimethyl-2H-pyrrol-5-one, reference compound]
Herbicidal activity in pre-emergence (percentage of damage, scale 0-100%) (Abutilon theophrasti): 90%
Herbicidal activity in pre-emergence (percentage of damage, scale 0-100%) (Amaranthus retroflexus): 60%
Herbicidal activity in pre-emergence (percentage of damage, scale 0-100%) (Lolium rigidum): 80%
Herbicidal activity in pre-emergence (percentage of damage, scale 0-100%) (Setaria viridis): 79%
Herbicidal activity in pre-emergence (percentage of damage, scale 0-100%) (Solanum nigra): 90%
Herbicidal activity in post-emergence (percentage of damage, scale 0-100%) (Digitaria sanguinalis): 40%
Herbicidal activity in post-emergence (percentage of damage, scale 0-100%) (Echinochloa crus-galli): 85%
Herbicidal activity in post-emergence (percentage of damage, scale 0-100%) (Sida spinosa): 40%

COCC(=O)OC1C(C)=C(C)C(=O)N1c1nnc(C(C)(C)C)s1 (stereo not drawn) [Compound 2, 1-(5-tert-butyl-1,3,4-thiadiazol-2-yl)-3,4-dimethyl-2-methoxyacetate-2H-pyrrol-5-one]
Herbicidal activity in pre-emergence (percentage of damage, scale 0-100%) (Abutilon theophrasti): 95%
Herbicidal activity in pre-emergence (percentage of damage, scale 0-100%) (Amaranthus retroflexus): 92%
Herbicidal activity in pre-emergence (percentage of damage, scale 0-100%) (Lolium rigidum): 100%
Herbicidal activity in pre-emergence (percentage of damage, scale 0-100%) (Setaria viridis): 100%
Herbicidal activity in pre-emergence (percentage of damage, scale 0-100%) (Solanum nigra): 95%
Herbicidal activity in post-emergence (percentage of damage, scale 0-100%) (Digitaria sanguinalis): 100%
Herbicidal activity in post-emergence (percentage of damage, scale 0-100%) (Echinochloa crus-galli): 100%
Herbicidal activity in post-emergence (percentage of damage, scale 0-100%) (Sida spinosa): 90%

1-(5-tert-butyl-1,3,4-thiadiazol-2-yl)-3,4-dimethyl-2-methoxyethylcarbonate-2H-pyrrol-2-yl-5-one [Compound 3]
Herbicidal activity in post-emergence (percentage of damage, scale 0-100%) (Digitaria sanguinalis): 90%
Herbicidal activity in post-emergence (percentage of damage, scale 0-100%) (Echinochloa crus-galli): 95%
Herbicidal activity in post-emergence (percentage of damage, scale 0-100%) (Sida spinosa): 90%

Reference: patent US11937603B2, “Maleimide derivatives having herbicidal activity, agronomic compositions of the maleimide derivatives, and uses thereof” (Gowan Company, LLC, priority 2018, dated 2024)
